Measurements published in ChEMBL document CHEMBL4477163, “Rubiaceae-Type Cyclopeptides from Galianthe thalictroides” (2016).
Values after ≈ are worked out from the molar mass of the structure shown.

Assays:
Format in all cases: functional
786-0 = test: Cytotoxicity against human 786-0 cells by sulforhodamine B assay
HT-29 = test: Cytotoxicity against human HT-29 cells by sulforhodamine B assay
PC-3 = test: Cytotoxicity against human PC3 cells by sulforhodamine B assay
P388 = test: Cytotoxicity against mouse P388 cells at 1 mg/ml relative to control

Row | SMILES | GI50 (786-0) [µg/mL] | GI50 (HT-29) [µg/mL] | GI50 (PC-3) [µg/mL] | T/C (P388) [%]
1 | COc1cccc2c1C(=O)c1c(O)c3c(c(O)c1C2=O)C[C@@](O)(C(=O)CO)C[C@@H]3O[C@H]1C[C@H](N)[C@H](O)[C@H](C)O1 [DOXORUBICIN] | 0.02 (≈ 0.0368 µM) | 0.27 (≈ 0.497 µM) | 0.35 (≈ 0.644 µM) | –
2 | COc1ccc(C[C@H]2C(=O)N[C@@H](C)C(=O)N(C)[C@@H]3C(=O)N(C)[C@@H](Cc4ccc(OC)c(c4)Oc4ccc(cc4)[C@@H]3O)C(=O)N[C@H](C)C(=O)N[C@@H](CO)C(=O)N2C)cc1 | 1.14 (≈ 1.42 µM) | 1.8 (≈ 2.24 µM) | 0.26 (≈ 0.324 µM) | –
3 | COc1ccc(C[C@H]2C(=O)N[C@@H](C)C(=O)N(C)[C@@H]3C(=O)N(C)[C@@H](Cc4ccc(OC)c(c4)Oc4ccc(cc4)[C@@H]3O)C(=O)N[C@H](C)C(=O)N[C@@H](C)C(=O)N2C)cc1 | 0.07 (≈ 0.089 µM) | 0.07 (≈ 0.089 µM) | 0.06 (≈ 0.0763 µM) | 134
